{
  "source": "patent US20070123520A1",
  "about": "(priority 2005, published 2007)",
  "origin": "cited, not measured here",
  "key": {"[1]": {"test_system": "influenza A viruses"}, "[2]": {"conditions": "in vivo"}, "[3]": {"test_system": "methemoglobinemia", "conditions": "in vivo, iv, 1 mg/kg"}, "[4]": {"test_system": "sheep", "conditions": "in vivo"}, "[5]": {"conditions": "in vivo", "remark": "listed apart in the source"}, "[6]": {"conditions": "in vivo", "remark": "listed apart in the source"}, "[7]": {"conditions": "in vivo", "remark": "listed apart in the source"}},
  "data": [
    {"compound": "NC12CC3CC(CC(C3)C1)C2", "note": "[amantadine]", "values": [
      {"measurement": "activity against influenza A viruses", "setting": "[1]", "result": "activity"}
    ]},
    {"compound": "CC(=O)N[C@H]1[C@H]([C@H](O)[C@H](O)CO)OC(C(=O)O)=C[C@@H]1N=C(N)N", "note": "[zanamivir]", "values": [
      {"measurement": "activity against influenza A viruses", "setting": "[1]", "result": "activity"}
    ]},
    {"compound": "CCOC(=O)C1=C[C@@H](OC(CC)CC)[C@H](NC(C)=O)[C@@H](N)C1", "note": "[oseltamivir]", "values": [
      {"measurement": "activity against influenza A viruses", "setting": "[1]", "result": "activity"}
    ]},
    {"compound": "CC(N)C12CC3CC(CC(C3)C1)C2", "note": "(stereo not shown) [rimantadine]", "values": [
      {"measurement": "activity against influenza A viruses", "setting": "[1]", "result": "activity"}
    ]},
    {"compound": "CN(C)c1ccc2nc3ccc(N(C)C)cc3[s+]c2c1.[Cl-]", "note": "[methylene blue, 3,7-Bis(dimethylamino)-phenothiazin-5-ium chloride]", "values": [
      {"measurement": "Side effects", "setting": "[2]", "result": "blue urine, occasional nausea, anemia and fever"},
      {"measurement": "side effects", "setting": "[2]", "result": "minimal side effects"},
      {"measurement": "treatment of methemoglobinemia", "setting": "[3]", "result": "effective"},
      {"measurement": "methemoglobin production", "setting": "[4]", "result": "minimal"},
      {"measurement": "hematologic changes", "setting": "[4]; 30 mg/kg", "result": "no hematologic changes"},
      {"measurement": "absorption from the GI tract", "setting": "[5]", "result": "absorbed well"},
      {"measurement": "Oral absorption (range)", "setting": "[5]; po", "result": "53-97%"},
      {"measurement": "overall elimination rate constant", "setting": "[6]", "result": "0.0076 ± 0.0016", "unit": "min⁻¹"},
      {"measurement": "crossing of the blood-milk barrier", "setting": "[7]", "result": "crosses the blood-milk barrier easily"}
    ]}
  ]
}
